# Type: physicochemical
# Experimental: The solubility of the salts in water (see Table 3), methanol (see Table 4) and phosphate buffer (see Table 5) were tested.
row,Compound,Solubility - in Water (descriptive term only)
1,CC[C@H](C)[C@H](NC(=O)[C@H](CC(C)C)NC(=O)[C@H](Cc1c[nH]c2ccccc12)NC(=O)[C@H](CCC(N)=O)NC(=O)[C@@H](NC(=O)[C@H](Cc1ccccc1)NC(=O)[C@H](C)NC(=O)[C@H](CCCCNC(=O)COCCOCCNC(=O)COCCOCCNC(=O)CC[C@H](NC(=O)CCCCCCCCCCCCCCCCCCC(=O)O)C(=O)O)NC(=O)[C@H](CCC(N)=O)NC(=O)[C@H](C)NC(=O)[C@@H](NC(=O)[C@H](CCCCN)NC(=O)[C@H](CC(=O)O)NC(=O)[C@H](CC(C)C)NC(=O)C(C)(C)NC(=O)[C@@H](NC(=O)[C@H](CO)NC(=O)[C@H](Cc1ccc(O)cc1)NC(=O)[C@H](CC(=O)O)NC(=O)[C@H](CO)NC(=O)[C@@H](NC(=O)[C@H](Cc1ccccc1)NC(=O)[C@@H](NC(=O)CNC(=O)[C@H](CCC(=O)O)NC(=O)C(C)(C)NC(=O)[C@@H](N)Cc1ccc(O)cc1)[C@@H](C)O)[C@@H](C)O)[C@@H](C)CC)[C@@H](C)CC)C(C)C)C(=O)N[C@@H](C)C(=O)NCC(=O)NCC(=O)N1CCC[C@H]1C(=O)N[C@@H](CO)C(=O)N[C@@H](CO)C(=O)NCC(=O)N[C@@H](C)C(=O)N1CCC[C@H]1C(=O)N1CCC[C@H]1C(=O)N1CCC[C@H]1C(=O)N[C@@H](CO)C(N)=O [Ammonium content- 0.25%],practically insoluble in water
2,CC[C@H](C)[C@H](NC(=O)[C@H](CC(C)C)NC(=O)[C@H](Cc1c[nH]c2ccccc12)NC(=O)[C@H](CCC(N)=O)NC(=O)[C@@H](NC(=O)[C@H](Cc1ccccc1)NC(=O)[C@H](C)NC(=O)[C@H](CCCCNC(=O)COCCOCCNC(=O)COCCOCCNC(=O)CC[C@H](NC(=O)CCCCCCCCCCCCCCCCCCC(=O)O)C(=O)O)NC(=O)[C@H](CCC(N)=O)NC(=O)[C@H](C)NC(=O)[C@@H](NC(=O)[C@H](CCCCN)NC(=O)[C@H](CC(=O)O)NC(=O)[C@H](CC(C)C)NC(=O)C(C)(C)NC(=O)[C@@H](NC(=O)[C@H](CO)NC(=O)[C@H](Cc1ccc(O)cc1)NC(=O)[C@H](CC(=O)O)NC(=O)[C@H](CO)NC(=O)[C@@H](NC(=O)[C@H](Cc1ccccc1)NC(=O)[C@@H](NC(=O)CNC(=O)[C@H](CCC(=O)O)NC(=O)C(C)(C)NC(=O)[C@@H](N)Cc1ccc(O)cc1)[C@@H](C)O)[C@@H](C)O)[C@@H](C)CC)[C@@H](C)CC)C(C)C)C(=O)N[C@@H](C)C(=O)NCC(=O)NCC(=O)N1CCC[C@H]1C(=O)N[C@@H](CO)C(=O)N[C@@H](CO)C(=O)NCC(=O)N[C@@H](C)C(=O)N1CCC[C@H]1C(=O)N1CCC[C@H]1C(=O)N1CCC[C@H]1C(=O)N[C@@H](CO)C(N)=O [Acetic acid content - 1.06%],Practically insoluble in water

# Source: US20250019410A1, “PROCESS FOR THE PREPARATION OF TIRZEPATIDE OR PHARMACEUTICALLY ACCEPTABLE SALT THEREOF” (Sun Pharmaceutical Industries Ltd., priority 2021, published 2025)
